Data taken from patent publication US20070254907A1, “COMPOSITIONS AND METHODS FOR CONTROLLING INFESTATION” (HATCHTECH PTY LTD, priority 2003, published 2007).
“Also recorded” adds a separate entry of the source.

Legend:
[1] = test system: lice eggs; assay: whole plant or invertebrate; format: in vivo; conditions: Lice (L)
[2] = test system: Plutella xylostella eggs; assay: whole plant or invertebrate; format: in vivo; conditions: for Ovicidal activity % / Activity class 0 = inactive 1 = low 2 = med 3 = high: Plutella (P); for % Inhibition: relative to controls
Experimental: The ovicidal efficacy of 2-acetyl-1-tetralone was also tested against Plutella eggs.

[3] = test system: Plutella xylostella eggs; assay: Reversal of inhibition of Plutella egg hatching by added FeSO4; format: in vivo
Experimental: (§1) Within 24 hours of collection the following experimental design was chosen. Batches of eggs were exposed to 10 mM 6,6′-dimethyl-2,2′-dipyridyl for 2 seconds while additional batches of eggs were exposed to the solvent only (Methanol) for 2 seconds. All batches of eggs were allowed to air dry for 20 minutes at room temperature. The eggs were then given a 2 second exposure to FeSO4 at either 10, 5 or 1 mM, air dried and put in the incubator at 24° C. and allowed to hatch over the next 6 days. In addition, a positive control of 10 mM 6,6′-dimethyl-2,2′-dipyridyl was set up in which eggs were exposed to this compound for 2 seconds, air dried and placed in the incubator.
as §1, with “10 mM 5,5′-dimethyl-2,2′-dipyridyl for 2” for “10 mM 6,6′-dimethyl-2,2′-dipyridyl for 2”, “FeSO4 at 10, 5” for “FeSO4 at either 10, 5”, “put in an incubator at” for “put in the incubator at”, “of 10 mM, 5,5′-dimethyl-2,2′-dipyridyl was set” for “of 10 mM 6,6′-dimethyl-2,2′-dipyridyl was set”

[4] = test system: B. ovis eggs; assay: Egg hatching in Bovicola ovis; format: in vivo; conditions: 10 mM; for Number hatched in different replicates: 10 eggs per replicate; for % Inhibition: in comparison to the controls; for Number unhatched: per replicate
Experimental: B. ovis eggs were collected from the wool of sheep that were infested with this parasite. The eggs were collected using forceps and with the aid of a dissecting microscope and placed in 24 well tissue culture plates in duplicate lots of 10 eggs per replicate. The eggs were then exposed to either methanol alone (control) or the test compounds for either 10 minutes or 1 minute before being removed from the wells and placed into individual glass vials containing a diet at the base of the tube. The tubes were placed in plastic containers containing a salt solution (to keep humidity constant at 68%) and the containers maintained at a temperature 32° C. The eggs were monitored for hatching over the following 12 days and % hatch inhibition determined in comparison to the controls.

[5] = test system: Lice (L) and Plutella (P) eggs; conditions: Lice (L) and Plutella (P)
[6] = test system: Helicoverpa armigera eggs; assay: Egg hatching of Helicoverpa armigera; conditions: 10 mM
Experimental: A range of concentrations were made up in water and the eggs placed in the solutions for approximately 2-10 seconds. The eggs which had been laid on cloth were then blotted dry and placed in an incubator at 26° C. for 3-4 days until hatch. Hatch rates were then assessed compared to a water only treated control (FIG. 5).
The compound was dissolved in 100% diethoxyglycol and diluted to a final concentration of 1% in water.
Several hundred Helicoverpa armigera eggs (Tatura×Toowoomba strains) were collected, that had been laid on fine mesh cloth over a 24 hour period.
Batches of Helicoverpa eggs were exposed to a specific inhibitor solution for between 2-10 seconds the excess solution drained by blotting with dry tissue paper. The egg masses were then placed in a humid box at 25 degrees until egg hatch. Control eggs were exposed to absolute methanol as described above. At day 6 post laying the eggs were assessed from the different treatments and the percentage of egg hatch determined relative to the control as shown in Table 12.
Batches of Helicoverpa eggs were then exposed to a specific inhibitor solution for between 2-10 seconds the excess solution drained by blotting with dry tissue paper. The egg masses were then placed in a humid box at 25° C. until egg hatch. Control eggs were exposed to absolute methanol as described above. At day 6 post laying the eggs were assessed from the different treatments and the percentage of egg hatch determined relative to the control as shown in Table 13.

[7] = Table 10, eggs laid on cloth, 1 mM
[8] = Table 10, eggs laid on cloth, 10 mM
[9] = Table 11, eggs laid on parafilm, 1 mM
[10] = Table 11, eggs laid on parafilm, 10 mM
[11] = 10 mM chelator followed by 2 second exposure to 1 mM FeSO4
[12] = 10 mM chelator followed by 2 second exposure to 5 mM FeSO4
[13] = 10 mM chelator followed by 2 second exposure to 10 mM FeSO4
[14] = 10 mM chelator followed by 2 second exposure to MEOH
[15] = 10 mM chelator, 2 s, (+ve) control without second exposure

With `Cc1ccc(-c2ccc(C)cn2)nc1` [5,5′-dimethyl-2,2′-dipyridyl] the Ovicidal activity % ([1]; 30 mM) was 100.00%, the “Activity class 0 = inactive 1 = low 2 = med 3 = high” value ([1]; listed as of 30 mM) was 2 (a pLD50 value between 3 and 4 is considered moderately active (Class 2)) and the “effect on egg hatching of Plutella xylostella (words)” value ([2]; 10 and 1 mM) was “significantly inhibit egg hatching”. For the same compound, the Ovicidal activity % ([2]; 0.1 mM) was 57.00%, the Ovicidal activity % ([2]; 1 mM) was 98.00% and the “Activity class 0 = inactive 1 = low 2 = med 3 = high” value ([2]; listed as of 0.1 mM) was 3 (a pLD50 greater than 4 is considered strongly active (Class 3)). For the same compound, the “Activity class 0 = inactive 1 = low 2 = med 3 = high” value ([2]; listed as of 1 mM) was 3 (a pLD50 greater than 4 is considered strongly active (Class 3)), the Number hatched [2, 7] was 5 and the Number unhatched [2, 7] was 22. For the same compound, the “% Inhibition” value [2, 7] was 78%, the Number hatched [2, 8] was 0 and the Number unhatched [2, 8] was 21. The “% Inhibition” value [2, 8] was 100%, the Number hatched [2, 9] was 18 and the Number unhatched [2, 9] was 133. The “% Inhibition” value [2, 9] was 88%, the Number hatched [2, 10] was 0 and the Number unhatched [2, 10] was 138. The “% Inhibition” value [2, 10] was 100%, the Number hatched [3, 11] was 39 and the Number unhatched [3, 11] was 0. For the same compound, the “% Inhibition” value ([3]; 10 mM chelator followed by 2 second exposure to 1 mM FeSO4, relative to FeSO4 controls) was 0%, the Number hatched [3, 12] was 25 and the Number unhatched [3, 12] was 0. For the same compound, the “% Inhibition” value ([3]; 10 mM chelator followed by 2 second exposure to 5 mM FeSO4, relative to FeSO4 controls) was 0%, the Number hatched [3, 13] was 23 and the Number unhatched [3, 13] was 2. The “% Inhibition” value ([3]; 10 mM chelator followed by 2 second exposure to 10 mM FeSO4, relative to FeSO4 controls) was 8%, the “% Inhibition” value [3, 14] was 55% and the Number hatched [3, 14] was 16. The Number unhatched [3, 14] was 19, the “% Inhibition” value [3, 15] was 100% and the Number hatched [3, 15] was 0. The Number unhatched [3, 15] was 38, the “effect of added Fe in FeSO4 on the chelator's inhibition of egg hatching” value ([3]; 10 mM chelator, then FeSO4 10, 5 or 1 mM) was “able to reverse the effects” and the “inhibition of egg hatching after MeOH alone post exposure” value ([3]; 10 mM chelator, then MeOH) was “significant degree of inhibition of egg hatching”. For the same compound, the “egg hatching in the louse” value ([4]; 10 or 1 minute exposure) was “completely inhibited”, the “Number hatched in different replicates” value ([4]; 1 minute exposure) was “Rep 1. 0; also recorded: Rep 2. 0” and the “% Inhibition” value ([4]; 1 minute exposure) was 100%. The Number unhatched ([4]; 1 minute exposure) was 10, the “Number hatched in different replicates” value ([4]; 10 minute exposure) was “Rep 2. 0; also recorded: Rep 1. 0” and the “% Inhibition” value ([4]; 10 minute exposure) was 100%. The Number unhatched ([4]; 10 minute exposure) was 10, the Ovicidal activity % ([5]; 10 mM) was 100.00% and the “Activity class 0 = inactive 1 = low 2 = med 3 = high” value ([5]; listed as of 10 mM) was 3 (a pLD50 greater than 4 is considered strongly active (Class 3)). For the same compound, the “effect on egg hatching of Helicoverpa armigera (words)” value [6] was “significant inhibition of egg hatching”, the Number hatched ([6]; Table 13) was 0 and the Number unhatched ([6]; Table 13) was 42. For the same compound, the “% Inhibition” value ([6]; Table 13, relative to the control (100% MeOH)) was 100%.
